Data: US5478842A, “Ether derivatives having 5-lipoxygenase inhibitory activity” (Zeneca Limited, priority 1993, dated 1995)

Legend:
[1] = Crystallinity / physical form; type: physicochemical
Description: Such non-crystalline compounds are undesirable when consideration is given toward the preparation, purification, analysis, handling and formulation of larger quantities of the compounds.
In another aspect of the invention we have discovered that certain compounds of the invention are crystalline. The crystalline compounds of the invention are those for which a melting point has been given within the Examples provided hereinafter, for example the compounds of Examples 27 and 28. Thus such compounds are of value when their preparation on a larger scale is required. The purification, analysis and handling of a material is facilitated if it is formed in the crystalline state. It is known, for example, that the removal of solvent residues from non-crystalline, oily materials is problematical. In addition the preparation of a pharmaceutical composition comprising a crystalline material is a conventional procedure. The composition may, for example, be in a form suitable for oral use such as a tablet or capsule; or, for example, in a form suitable for administration by inhalation, for example as a finely divided powder or a microcrystalline form. Such options for the formulation of the material are precluded should it be formed in an oily state.

[2] = target: T1, 5-LO (LTB4) (Homo sapiens, UniProt P09917); assay: Test a): in vitro assay in heparinised human blood challenged with calcium ionophore A23187, LTB4 by radioimmunoassay; type: cell-based
T1 construct: incubating a test compound with heparinised human blood, prior to challenge with the calcium ionophore A23187; from tissue; host or cells: heparinised human whole blood (endogenous enzyme of blood cells)
T1 sequence (P09917 1-674): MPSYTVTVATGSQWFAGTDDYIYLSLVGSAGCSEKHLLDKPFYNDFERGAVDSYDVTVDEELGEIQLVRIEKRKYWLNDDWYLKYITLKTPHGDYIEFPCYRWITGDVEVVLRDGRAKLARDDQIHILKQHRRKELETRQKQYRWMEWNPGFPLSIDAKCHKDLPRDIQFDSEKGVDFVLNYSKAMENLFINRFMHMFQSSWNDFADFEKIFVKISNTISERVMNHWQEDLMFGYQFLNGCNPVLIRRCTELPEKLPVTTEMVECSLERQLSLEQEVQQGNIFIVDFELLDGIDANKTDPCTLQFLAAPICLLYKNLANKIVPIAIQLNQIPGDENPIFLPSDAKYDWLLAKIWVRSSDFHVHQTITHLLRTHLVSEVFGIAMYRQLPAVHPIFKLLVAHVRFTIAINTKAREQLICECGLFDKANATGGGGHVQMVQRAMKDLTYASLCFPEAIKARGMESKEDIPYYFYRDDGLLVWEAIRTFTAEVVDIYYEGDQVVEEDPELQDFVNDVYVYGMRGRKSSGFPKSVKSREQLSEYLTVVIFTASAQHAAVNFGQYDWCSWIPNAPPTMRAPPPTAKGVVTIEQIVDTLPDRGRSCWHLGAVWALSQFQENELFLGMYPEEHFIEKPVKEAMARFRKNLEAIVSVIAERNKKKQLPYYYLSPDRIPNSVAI
Method: a) An in vitro assay system involving incubating a test compound with heparinised human blood, prior to challenge with the calcium ionophore A23187 and then indirectly measuring the inhibitory effects on 5-L0 by assaying the amount of LTB4 using specific radioimmunoassays described by Carey and Forder (F. Carey and R. A. Forder, Prostaglandins, Leukotrienes Med., 1986, 22, 57; Prostaglandins, 1984, 28, 666; Brit. J. Pharmacol. 1985, 84, 34P) which involve the use of a protein-LTB4 conjugate produced using the procedure of Young et alia (Prostaglandins, 1983, 26(4), 605-613). The effects of a test compound on the enzyme cyclooxygenase (which is involved in the alternative metabolic pathway for arachidonic acid and gives rise to prostaglandins, thromboxanes and related metabolites) may be measured at the same time using the specific radioimmunoassay for thromboxane B2(TxB2) described by Carey and Forder (see above). This test provides an indication of the effects of a test compound against 5-L0 and also cyclooxygenase in the presence of blood cells and proteins. It permits the selectivity of the inhibitory effect on 5-L0 or cyclooxygenase to be assessed.

[3] = target: T2, 5-LO (LTB4) (Rattus norvegicus, UniProt P12527); assay: Test c): in vivo zymosan-induced LTB4 liberation in air pouch of male rats, oral; settings: 3 h; test c)
T2 construct: An in vivo system involving measuring the effects of a test compound administered orally to a group of male rats; from tissue; host or cells: live male rats, zymosan-inflamed subcutaneous air pouch (endogenous enzyme)
T2 sequence (P12527 1-673): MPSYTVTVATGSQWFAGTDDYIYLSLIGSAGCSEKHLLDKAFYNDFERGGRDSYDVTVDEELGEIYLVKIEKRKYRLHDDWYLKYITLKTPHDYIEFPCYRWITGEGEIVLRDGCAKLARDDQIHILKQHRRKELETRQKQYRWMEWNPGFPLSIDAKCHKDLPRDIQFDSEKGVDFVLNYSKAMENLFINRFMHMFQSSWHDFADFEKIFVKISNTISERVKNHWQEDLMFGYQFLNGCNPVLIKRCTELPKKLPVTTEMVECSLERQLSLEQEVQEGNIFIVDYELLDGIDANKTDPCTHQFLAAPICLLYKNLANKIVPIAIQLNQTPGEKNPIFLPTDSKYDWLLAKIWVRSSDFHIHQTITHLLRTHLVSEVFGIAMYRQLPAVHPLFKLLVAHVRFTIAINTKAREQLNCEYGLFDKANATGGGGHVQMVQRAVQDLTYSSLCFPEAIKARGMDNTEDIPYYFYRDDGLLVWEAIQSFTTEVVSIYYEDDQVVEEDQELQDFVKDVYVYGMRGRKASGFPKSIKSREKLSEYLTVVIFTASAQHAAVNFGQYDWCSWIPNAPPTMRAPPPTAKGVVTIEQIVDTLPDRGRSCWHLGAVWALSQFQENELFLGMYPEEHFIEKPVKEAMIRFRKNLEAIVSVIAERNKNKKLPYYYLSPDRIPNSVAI
Method: c) An in vivo system involving measuring the effects of a test compound administered orally to a group of male rats against the liberation of LTB4 induced by zymosan within an air pouch generated within the subcutaneous tissue of the back of the rats. The rats are anaesthetised and air pouches are formed by the injection of sterile air (20 ml). A further injection of air (10 ml) is similarly given after 3 days. At 6 days after the initial air injection the test compound is administered (usually orally as the suspension produced when a solution of the test compound in dimethylsulphoxide is added to hydroxypropylmethylcellulose), followed by the intrapouch injection of zymosan (1 ml of a 1% suspension in physiological saline). After 3 hours the rats are killed, the air pouches are lavaged with physiological saline, and the specific radioimmunoassay described above is used to assay LTB4 in the washings. This test provides an indication of inhibitory effects against 5-L0 in an inflammatory milieu.
Test c): oral ED50 (LTB4) in the range, for example, 0.1-100 mg/kg.

[4] = test system: hepatic enzymes; assay: Auto-induction on repeat dosing (decrease in C max or AUC); type: in vivo; settings: repeated dosing to a warm-blooded animal
Description: The result is a decrease on repeat dosing of the quantity of the compound present in the animal's blood stream as shown, for example, by a decrease in the maximum concentration achieved (C max) or, for example, a decrease in the exposure of the animal to the compound as measured by the area under the curve (AUC) of a plot of the concentration of the compound in the blood stream versus time after dosing.

| crystallinity / physical form [1] | IC50 [2] | ED50 [3] | SMILES | auto-induction [4] |
| --- | --- | --- | --- | --- |
| viscous oil |  |  | CO[C@]1(c2ccc(Sc3ccc4c(c3)CCC(=S)N4C)s2)CCO[C@@H](C)C1 [(2S,4R)-4-methoxy-2-methyl-4-[5-(1-methyl-2-thioxo-1,2,3,4-tetrahydroquinolin-6-ylthio)thien-2-yl]tetrahydropyran, reference compound] |  |
|  | 30 nM | ~0.15 mg/kg | C[C@H]1C[C@@](O)(c2cc(F)cc(S(=O)(=O)c3ccc4c(c3)CCC(=O)N4C)c2)CCO1 [Example 2, (2S,4R)-4-[5-fluoro-3-(1-methyl-2-oxo-1,2,3,4-tetrahydroquinolin-6-ylsulphonyl)phenyl]-4-hydroxy-2-methyltetrahydropyran] |  |
|  |  |  | C[C@H]1C[C@@](O)(c2csc(S(=O)(=O)c3ccc4c(c3)CCC(=O)N4C)c2)CCO1 [Example 9, (2S,4R)-4-hydroxy-2-methyl-4-[2-(1-methyl-2-oxo-1,2,3,4-tetrahydroquinolin-6-ylsulphonyl)thien-4-yl]tetrahydropyran] | lack to a substantial degree the undesirable property of auto-induction |
| crystalline | 20 nM | ~0.05 mg/kg | C[C@H]1C[C@@](O)(c2csc(Sc3ccc4c(c3)CC(=O)N4C)c2)CCO1 [Example 28, (2S,4R)-4-hydroxy-2-methyl-4-[2-(1-methyl-2-oxoindolin-5-ylthio)thien-4-yl]tetrahydropyran] | lack to a substantial degree the undesirable property of auto-induction |
|  |  |  | COC1(c2ccc(Sc3ccc4c(c3)CCC(=O)N4C)s2)CCOCC1 [4-methoxy-4-[5-(1-methyl-2-oxo-1,2,3,4-tetrahydroquinolin-6-ylthio)thien-2-yl]tetrahydropyran, reference compound] | possesses the undesirable property of auto-induction |
|  | 50 nM | ~0.2 mg/kg | C[C@H]1C[C@@](O)(c2cnc(Sc3ccc4c(c3)CCC(=O)N4C)s2)CCO1 [Example 3, (2S,4R)-4-hydroxy-2-methyl-4-[2-(1-methyl-2-oxo-1,2,3,4-tetrahydro-quinolin-6-ylthio)thiazol-5-yl]tetrahydropyran] | lack to a substantial degree the undesirable property of auto-induction |
| crystalline |  |  | C[C@H]1C[C@@](O)(c2cnc(Sc3ccc4c(c3)CC(=O)N4C)s2)CCO1 [Example 27, (2S,4R)-4-hydroxy-2-methyl-4-[2-(1-methyl-2-oxoindolin-5-ylthio)thiazol-5-yl]tetrahydropyran] |  |
|  | 30 nM | ~0.02 mg/kg | C[C@H]1C[C@@](O)(c2csc(Sc3ccc4c(c3)CCC(=O)N4C)c2)CCO1 [Example 5, (2S,4R)-4-hydroxy-2-methyl-4-[2-(1-methyl-2-oxo-1,2,3,4-tetrahydroquinolin-6-ylthio)thien-4-yl]tetrahydropyran] |  |
